One assay relates to miR-448. Nature of the assay: miR-448 level by qPCR in RL14 human cardiomyocytes. The conditions noted are these: for increase of miR-448 by deferoxamine: then deferoxamine six hours; for miR-448 expression: RL14 cells stimulated with hypoxia-mimetic chemical for 24 hours, normalized with RNU6. The format is cell-based. Here is the method: Human fetal cardiomyocyte cell line RL14 (ATCC RL-14, ATCC, Manassas, VA) cells were grown in DMEM/F-12 nutrient mixture (GE Healthcare Life Sciences, Logan, UT) supplemented with 12.5% (v/v) fetal bovine serum (Gibco, Grand Island, NY) and penicillin-streptomycin (10,000 U/mL; Gibco, Grand Island, NY). HEK293T cells were maintained in DMEM high glucose supplemented with 10% fetal bovine serum and penicillin-streptomycin. hiPSC-cardiomyocytes (iCELL Cardiomyocytes) were obtained from Cellular Dynamics International (Madison, WI). iCELL cardiomyocytes were seeded and maintained using iCELL Cardiomyocyte Plating Medium and Maintenance Medium (FUJIFILM Cellular Dynamics, Inc., Madison, WI). For hypoxic conditions, the cells were cultured in an hypoxic incubator chamber (STEMCELL Technologies, Vancouver, BC) using pre-incubated culture media or were treated with hypoxic-mimetic chemicals, deferoxamine (DFX) and cobalt chloride (CoCl2) (Sigma-Aldrich, St. Louis, MO) as previously described (Chachami et al., 2004, Am J Respir Cell Mol Biol 31:544-551; Woo et al, 2006, Biochem Biophys Res Commun 343:8-14).
Syn-hsa-miR-448 miScript miRNA mimic, anti-hsa-miR-448 miScript miRNA inhibitor, and its negative controls were purchased from Qiagen (Valencia, CA). REST siRNA and its negative control were obtained from Integrated DNA Technologies (Coralville, IA). The cells were transfected using HiPerFect Transfection Reagent (Qiagen, Valencia, CA) following the recommendations of the manufacturer. Plasmid DNA was transfected into cultured cells using SuperFect transfection reagent (Qiagen, Valencia, CA) following the manufacturer's protocol.
Total RNA was prepared using RNeasy Plus Mini Kit or miRNeasy Mini Kit (Qiagen, Valencia, CA) according to the manufacturer's instructions. Reverse transcription was performed with a First Strand cDNA Synthesis kit (Promega, Madison, WI). cDNA for miRNA detection was generated by the miScript II RT Kit (Qiagen, Valencia, CA). A reverse transcription quantitative real-time PCR was performed with SYBR Green PCR Master Mix (Thermo Fisher Scientific, Waltham, MA) using the 7500Fast Real-Time PCR system (Thermo Fisher Scientific, Waltham, MA) and miScript SYBR Green PCR Kit with miScript primer assays to detect the expression of miRNA. The primer sequences were as follows:
Hs_miR-448_1 miScript Primer Assay (5′-[…]-3′; (SEQ ID NO:1; Qiagen, Valencia, CA) was used for detecting miR-448, and the Hs_RNU6-2_11 miScript Primer Assay (Qiagen, Valencia, CA) was used as an endogenous control. The relative fold change was calculated by the 2^−ΔΔCt method, and the measurements were normalized with respect to the endogenous control (RNU6, GAPDH).
In general terms: In qPCR the cycle at which signal appears reflects the starting amount.

For the next assay, the system named is Nav1.5. Put plainly: Nav1.5 protein level by Western blotting in RL14 human cardiomyocytes. The format is cell-based. The conditions noted are these: cardiomyocytes treated for 24 hours. As to the method: Human fetal cardiomyocyte cell line RL14 (ATCC RL-14, ATCC, Manassas, VA) cells were grown in DMEM/F-12 nutrient mixture (GE Healthcare Life Sciences, Logan, UT) supplemented with 12.5% (v/v) fetal bovine serum (Gibco, Grand Island, NY) and penicillin-streptomycin (10,000 U/mL; Gibco, Grand Island, NY). HEK293T cells were maintained in DMEM high glucose supplemented with 10% fetal bovine serum and penicillin-streptomycin. hiPSC-cardiomyocytes (iCELL Cardiomyocytes) were obtained from Cellular Dynamics International (Madison, WI). iCELL cardiomyocytes were seeded and maintained using iCELL Cardiomyocyte Plating Medium and Maintenance Medium (FUJIFILM Cellular Dynamics, Inc., Madison, WI). […]
Cells were washed twice with ice-cold PBS and disrupted in Cell Lysis Buffer (Cell Signaling Technology, Danvers, MA) with Protease and Phosphatase Inhibitor Cocktail (Thermo Fisher Scientific, Waltham, MA) on ice for 30 minutes. […] The total protein concentration was quantified using the BCA Protein Assay Kit (Pierce, Thermo Fisher Scientific, Waltham, MA). […]
After TBST washing, the membrane was incubated with horseradish peroxidase (HRP)-conjugated secondary antibody (1:5000) for 90 min at room temperature. […] The images were analyzed using ImageJ software to measure band density. […]
(A western blot detects proteins with antibodies after separation by electrophoresis.)

As for `O=S(=O)(NCCSSCCNS(=O)(=O)c1cc(Cl)ccc1Cl)c1cc(Cl)ccc1Cl` [KC7F2], the “increase of miR-448 by deferoxamine” value in the assay on miR-448 (5 μM or 20 μM for 30 minutes) is reported as “inhibited”.
As for `C=CCONC(=O)c1ccc2nc(-c3ccccc3O)[nH]c2c1` [X5050], the Nav1.5 protein level entry in the assay on Nav1.5 was “decreased”.
As for `Cc1ccc(S(=O)(=O)/C=C/C#N)cc1` [Bay11-7028], the “increase of miR-448 by deferoxamine” value in the assay with miR-448 (0.5 μM or 2 μM for 30 minutes) is on record as “inhibited”.
Regarding `[Cl][Co][Cl]` [cobalt chloride], the miR-448 expression result with miR-448 is “increased”.
Same read-out and setting: in the case of `COC(=O)CNC(=O)C(=O)OC` [dimethyloxallyl glycine] it was “increased”.

(Values after patent publication US12612627B2, “Compositions and methods for increasing sodium current in cardiac cells” (REGENTS OF THE UNIVERSITY OF MINNESOTA, priority 2020, dated 2026).)
